{"source": "patent US12162843B2", "about": "“High-purity thermostable crystal form of substituted 3-isoxazolidinone compound, preparation method therefor and application thereof” (ZHEJIANG ZHUJI UNITED CHEMICALS CO., LTD., priority 2019, dated 2024)", "assay": "Stability experiment of the orthorhombic crystal (PXRD before and after storage)", "assay_type": "physicochemical", "details": "high-temperature (60±2° C.) oven, 90±5% humidity, 4500±5001 ux light intensity, 10 days, samples on 5th and 10th days", "protocol": "A further object of the application is to investigate stability of the orthorhombic crystal of the 2-[(2,4-dichlorophenyl)methyl]-4,4-dimethyl-3-isoxazolidinone compound (Formula I). The orthorhombic crystal is stored in a high-temperature (60±2° C.) oven, in a 90±5% humidity condition, and under 4500±5001 ux light intensity for 10 days, respectively, during which samples are collected on the 5th and 10th days for a PXRD analysis.\nA PXRD diffractometer (X′Pert PRO, PNAlytical, Netherlands) is employed to collect the following specific data: Cu anode=40 kV, 150 mA, 2θ scanning range=0°˜45°, scanning speed=8°/min, step size=0.02°, divergence slit (DS)=1°, anti-scattering slit=(SS) 1°, and receiving slit (RS)=0.15 mm.\nThe crystals of the 2-[(2,4-dichlorophenyl)methyl]-4,4-dimethyl-3-isoxazolidinone compound (Formula I) obtained in embodiments 3, 4, 5, and 6 are respectively placed in a high-temperature (60±2° C.) oven, in a 90±5% humidity condition, and under 4500±5001 ux light intensity for 10 days. Samples are collected on the 5th and 10th days for the PXRD analysis.", "data": [{"smiles": "CC1(C)CON(Cc2ccc(Cl)cc2Cl)C1=O", "note": "[orthorhombic crystal, 2-[(2,4-dichlorophenyl)methyl]-4,4-dimethyl-3-isoxazolidinone]", "values": [{"measurement": "stability of the crystal form (PXRD before and after storage)", "result": "stable crystal form under high temperature, humidity and light intensity conditions"}, {"measurement": "stability of the crystal form (PXRD before and after storage)", "setting": "listed as orthorhombic crystals", "result": "remain stable under high temperature, high humidity, and light intensity"}]}]}
